According to patent US20240390298A1, “CYCLOHEXYL BETA-HYDROXY ALKYL AMINES AND MEDICAL USES THEREOF” (ATROGI AB, priority 2021, published 2024):
Structures can show the parent of a compound that is named as a salt.

Assays:
L6-myotubes [1] = assay: Measurement of intracellular cAMP levels in differentiated L6 cells (alpha screen cAMP kit), compared to isoproterenol; type: cell-based; details: agonist 1×10^−5 M, 15 min; for Emax at 10 µM: Rattus norvegicus, L6, 0.25 h, read-out: Biological example 2: intracellular cAMP levels, activity compared to that of isoproterenol
Outline: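 L6 myoblasts were differentiated into myotubes over 7 days in 2% FBS, then serum-starved overnight. Agonist at 1×10^−5 M final was applied for 15 min in HBSS with 1% BSA, 5 mM HEPES and 1 mM IBMX, pH 7.4. After ethanol extraction and lysis, cAMP was quantified by AlphaScreen, with activity expressed relative to isoproterenol.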

L6-myotubes [2] = assay: Glucose uptake in differentiated L6-myotubes (3H-2-deoxyglucose), compared to isoproterenol; type: cell-based; details: agonist 1×10^−5 M, 50 nM 3H-2-deoxyglucose
Outline: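 Serum-starved differentiated L6 myotubes stimulated with agonist at 1×10^−5 M for 1 h 40 min, re-dosed in glucose-free medium for 20 min, then given 50 nM ^3H-2-deoxyglucose for 10 min. Uptake read by β-counting of NaOH lysates; activity expressed relative to isoproterenol.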

SMILES: CC(C)(C[C@H]1CC[C@@H](NC(=O)OC(C)(C)C)CC1)NC[C@H](O)c1cccc(C(F)(F)F)n1 [Example 147, tert-Butyl ((1R,4s)-4-(2-(((S)-2-hydroxy-2-(6-(trifluoromethyl)pyridin-2-yl)ethyl)amino)-2-methylpropyl)cyclohexyl)carbamate]
- Emax at 10 µM (L6-myotubes [1]): < 25%
- Biological example 1: glucose uptake, activity compared to that of isoproterenol (L6-myotubes [2]): + +

SMILES: CC(C)(C[C@H]1CC[C@H](NC(=O)OC(C)(C)C)CC1)NC[C@H](O)c1cccc(C(F)(F)F)n1 [Example 148, tert-Butyl ((1S,4r)-4-(2-(((S)-2-hydroxy-2-(6-(trifluoromethyl)pyridin-2-yl)ethyl)amino)-2-methylpropyl)cyclohexyl)carbamate]
- Emax at 10 µM (L6-myotubes [1]): < 25%
- Biological example 1: glucose uptake, activity compared to that of isoproterenol (L6-myotubes [2]): + + +

SMILES: CC(=O)N[C@H]1CC[C@@H](CC(C)(C)NC[C@H](O)c2cccc(C(F)(F)F)n2)CC1 [Example 149, N-((1R,4s)-4-(2-(((S)-2-Hydroxy-2-(6-(trifluoromethyl)pyridin-2-yl)-ethyl)amino)-2-methylpropyl)cyclohexyl)acetamide dihydrochloride]
- Emax at 10 µM (L6-myotubes [1]): < 25%
- Biological example 1: glucose uptake, activity compared to that of isoproterenol (L6-myotubes [2]): + +

SMILES: CC(C)(C[C@H]1CC[C@@H](NS(C)(=O)=O)CC1)NC[C@H](O)c1cccc(C(F)(F)F)n1 [Example 150, N-((1R,4s)-4-(2-(((S)-2-Hydroxy-2-(6-(trifluoromethyl)pyridin-2-yl)ethyl)-amino)-2-methylpropyl)cyclohexyl)methanesulfonamide dihydrochloride]
- Emax at 10 µM (L6-myotubes [1]): < 25%
- Biological example 1: glucose uptake, activity compared to that of isoproterenol (L6-myotubes [2]): + + +

SMILES: CC(=O)N[C@H]1CC[C@H](CC(C)(C)NC[C@H](O)c2cccc(C(F)(F)F)n2)CC1 [Example 151, N-((1S,4r)-4-(2-(((S)-2-Hydroxy-2-(6-(trifluoromethyl)pyridin-2-yl)-ethyl)amino)-2-methylpropyl)cyclohexyl)acetamide dihydrochloride]
- Emax at 10 µM (L6-myotubes [1]): < 25%
- Biological example 1: glucose uptake, activity compared to that of isoproterenol (L6-myotubes [2]): + + +

SMILES: CC(C)(C[C@H]1CC[C@H](NS(C)(=O)=O)CC1)NC[C@H](O)c1cccc(C(F)(F)F)n1 [Example 152, N-((1S,4r)-4-(2-(((S)-2-Hydroxy-2-(6-(trifluoromethyl)pyridin-2-yl)-ethyl)amino)-2-methylpropyl)cyclohexyl)methanesulfonamide dihydrochloride]
- Emax at 10 µM (L6-myotubes [1]): < 25%
- Biological example 1: glucose uptake, activity compared to that of isoproterenol (L6-myotubes [2]): + +

SMILES: CC(C)(C[C@H]1CC[C@H](NC(=O)OC(C)(C)C)CC1)NC[C@H](O)c1cccc(F)c1 [Example 153, tert-Butyl ((1R,4r)-4-(2-(((R)-2-(3-fluorophenyl)-2-hydroxyethyl)amino)-2-methylpropyl)cyclohexyl)carbamate]
- Emax at 10 µM (L6-myotubes [1]): 25 to 50%
- Biological example 1: glucose uptake, activity compared to that of isoproterenol (L6-myotubes [2]): + + +

SMILES: CC(C)(C[C@H]1CC[C@H](NC(=O)C(C)(C)C)CC1)NC[C@H](O)c1cccc(F)c1.Cl [Example 154, N-((1R,4r)-4-(2-(((R)-2-(3-Fluorophenyl)-2-hydroxyethyl)amino)-2-methylpropyl)cyclohexyl)pivalamide hydrochloride]
- Emax at 10 µM (L6-myotubes [1]): 25 to 50%
- Biological example 1: glucose uptake, activity compared to that of isoproterenol (L6-myotubes [2]): + + +

SMILES: CC(C)(C[C@H]1CC[C@H](NC(=O)C2CCC2)CC1)NC[C@H](O)c1cccc(F)c1.Cl [Example 155, N-((1R,4r)-4-(2-(((R)-2-(3-Fluorophenyl)-2-hydroxyethyl)amino)-2-methylpropyl)cyclohexyl)cyclobutanecarboxamide hydrochloride]
- Biological example 2: intracellular cAMP levels, activity compared to that of isoproterenol (L6-myotubes [1]): + +
- Biological example 1: glucose uptake, activity compared to that of isoproterenol (L6-myotubes [2]): + + +

SMILES: CC(C)(C[C@H]1CC[C@H](NC(=O)C2CC2)CC1)NC[C@H](O)c1cccc(F)c1.Cl [Example 156, N-((1R,4r)-4-(2-(((R)-2-(3-Fluorophenyl)-2-hydroxyethyl)amino)-2-methylpropyl)cyclohexyl)cyclopropanecarboxamide hydrochloride]
- Biological example 2: intracellular cAMP levels, activity compared to that of isoproterenol (L6-myotubes [1]): + + +
- Biological example 1: glucose uptake, activity compared to that of isoproterenol (L6-myotubes [2]): + + +

SMILES: CC(C)(C[C@H]1CC[C@H](NC(=O)C(F)(F)F)CC1)NC[C@H](O)c1cccc(F)c1.Cl [Example 157, 2,2,2-Trifluoro-N-((1R,4r)-4-(2-(((R)-2-(3-fluorophenyl)-2-hydroxyethyl)-amino)-2-methylpropyl)cyclohexyl)acetamide hydrochloride]
- Emax at 10 µM (L6-myotubes [1]): 25 to 50%
- Biological example 1: glucose uptake, activity compared to that of isoproterenol (L6-myotubes [2]): + + +

SMILES: CN(C)C(=O)N[C@H]1CC[C@H](CC(C)(C)NC[C@H](O)c2cccc(F)c2)CC1.Cl [Example 158, 3-((1R,4r)-4-(2-(((R)-2-(3-Fluorophenyl)-2-hydroxyethyl)amino)-2-methyl-propyl)cyclohexyl)-1,1-dimethylurea hydrochloride]
- Biological example 2: intracellular cAMP levels, activity compared to that of isoproterenol (L6-myotubes [1]): + + +
- Biological example 1: glucose uptake, activity compared to that of isoproterenol (L6-myotubes [2]): + + +

SMILES: CCCS(=O)(=O)N[C@H]1CC[C@H](CC(C)(C)NC[C@H](O)c2cccc(F)c2)CC1 [Example 159, N-((1R,4r)-4-(2-(((R)-2-(3-Fluorophenyl)-2-hydroxyethyl)amino)-2-methylpropyl)cyclohexyl)propane-1-sulfonamide hydrochloride]
- Emax at 10 µM (L6-myotubes [1]): 25 to 50%
- Biological example 1: glucose uptake, activity compared to that of isoproterenol (L6-myotubes [2]): + + +

SMILES: CC(C)(C[C@H]1CC[C@H](NS(=O)(=O)C(F)(F)F)CC1)NC[C@H](O)c1cccc(F)c1 [Example 160, 1,1,1-Trifluoro-N-((1R,4r)-4-(2-(((R)-2-(3-fluorophenyl)-2-hydroxyethyl)-amino)-2-methylpropyl)cyclohexyl)methanesulfonamide hydrochloride]
- Emax at 10 µM (L6-myotubes [1]): < 25%
- Biological example 1: glucose uptake, activity compared to that of isoproterenol (L6-myotubes [2]): + + +

SMILES: CC(C)(C[C@H]1CC[C@H](NS(=O)(=O)C2CC2)CC1)NC[C@H](O)c1cccc(F)c1 [Example 161, N-((1R,4r)-4-(2-(((R)-2-(3-Fluorophenyl)-2-hydroxyethyl)amino)-2-methypropyl)cyclohexyl)cyclopropanesulfonamide hydrochloride]
- Emax at 10 µM (L6-myotubes [1]): < 25%
- Biological example 1: glucose uptake, activity compared to that of isoproterenol (L6-myotubes [2]): + +

SMILES: CC(C)(C[C@H]1CC[C@@H](NC(=O)OC(C)(C)C)CC1)NC[C@H](O)c1cccc(F)c1 [Example 162, tert-Butyl ((1S,4s)-4-(2-(((R)-2-(3-fluorophenyl)-2-hydroxyethyl)amino)-2-methylpropyl)cyclohexyl)carbamate]
- Emax at 10 µM (L6-myotubes [1]): < 25%
- Biological example 1: glucose uptake, activity compared to that of isoproterenol (L6-myotubes [2]): + + +

SMILES: CC(C)(C[C@H]1CC[C@@H](N)CC1)NC[C@H](O)c1cccc(F)c1 [Example 163, (R)-2-((1-((1s,4S)-4-Aminocyclohexyl)-2-methylpropan-2-yl)amino)-1-(3-fluorophenyl)ethan-1-ol]
- Emax at 10 µM (L6-myotubes [1]): < 25%
- Biological example 1: glucose uptake, activity compared to that of isoproterenol (L6-myotubes [2]): + + +

SMILES: CC(=O)N[C@H]1CC[C@@H](CC(C)(C)NC[C@H](O)c2cccc(F)c2)CC1 [Example 164, N-((1S,4s)-4-(2-(((R)-2-(3-Fluorophenyl)-2-hydroxyethyl)amino)-2-methylpropyl)cyclohexyl)acetamide]
- Emax at 10 µM (L6-myotubes [1]): < 25%
- Biological example 1: glucose uptake, activity compared to that of isoproterenol (L6-myotubes [2]): + + +

SMILES: CC(C)(C[C@H]1CC[C@@H](NC(=O)C(C)(C)C)CC1)NC[C@H](O)c1cccc(F)c1 [Example 165, N-((1S,4s)-4-(2-(((R)-2-(3-Fluorophenyl)-2-hydroxyethyl)amino)-2-methylpropyl)cyclohexyl)pivalamide hydrochloride]
- Emax at 10 µM (L6-myotubes [1]): < 25%
- Biological example 1: glucose uptake, activity compared to that of isoproterenol (L6-myotubes [2]): + + +

SMILES: CC(C)(C[C@H]1CC[C@@H](NC(=O)C2CC2)CC1)NC[C@H](O)c1cccc(F)c1 [Example 166, N-((1S,4s)-4-(2-(((R)-2-(3-Fluorophenyl)-2-hydroxyethyl)amino)-2-methylpropyl)cyclohexyl)cyclopropanecarboxamide hydrochloride]
- Emax at 10 µM (L6-myotubes [1]): < 25%
- Biological example 1: glucose uptake, activity compared to that of isoproterenol (L6-myotubes [2]): + + +

SMILES: CC(C)(C[C@H]1CC[C@@H](NC(=O)C2CCC2)CC1)NC[C@H](O)c1cccc(F)c1 [Example 167, N-((1S,4s)-4-(2-(((R)-2-(3-Fluorophenyl)-2-hydroxyethyl)amino)-2-methylpropyl)cyclohexyl)cyclobutanecarboxamide hydrochloride]
- Emax at 10 µM (L6-myotubes [1]): < 25%
- Biological example 1: glucose uptake, activity compared to that of isoproterenol (L6-myotubes [2]): + +

SMILES: CC(C)(C[C@H]1CC[C@@H](NC(=O)C(F)(F)F)CC1)NC[C@H](O)c1cccc(F)c1 [Example 168, 2,2,2-Trifluoro-N-((1S,4s)-4-(2-(((R)-2-(3-Fluorophenyl)-2-hydroxyethyl)-amino)-2-methylpropyl)cyclohexyl)acetamide hydrochloride]
- Emax at 10 µM (L6-myotubes [1]): < 25%
- Biological example 1: glucose uptake, activity compared to that of isoproterenol (L6-myotubes [2]): + + +

SMILES: CN(C)C(=O)N[C@H]1CC[C@@H](CC(C)(C)NC[C@H](O)c2cccc(F)c2)CC1 [Example 169, 3-((1S,4s)-4-(2-(((R)-2-(3-Fluorophenyl)-2-hydroxyethyl)amino)-2-methylpropyl)cyclohexyl)-1,1-dimethylurea hydrochloride]
- Emax at 10 µM (L6-myotubes [1]): 25 to 50%
- Biological example 1: glucose uptake, activity compared to that of isoproterenol (L6-myotubes [2]): + + +

SMILES: CC(C)(C[C@H]1CC[C@@H](NS(C)(=O)=O)CC1)NC[C@H](O)c1cccc(F)c1 [Example 170, N-((1S,4s)-4-(2-(((R)-2-(3-Fluorophenyl)-2-hydroxyethyl)amino)-2-methylpropyl)cyclohexyl)methanesulfonamide hydrochloride]
- Emax at 10 µM (L6-myotubes [1]): < 25%
- Biological example 1: glucose uptake, activity compared to that of isoproterenol (L6-myotubes [2]): + + +
